# Key:
# [1] = target: T1, Apelin receptor (Homo sapiens, UniProt P35414); assay: Agonist activity at human APJ receptor expressed in CHO cells assessed as inhibition of forskolin-induced cAMP accumulation measured after 30 mins by TR-FRET based LANCE cAMP assay; assay type: functional, cell-based
# T1 sequence (P35414 whole entry): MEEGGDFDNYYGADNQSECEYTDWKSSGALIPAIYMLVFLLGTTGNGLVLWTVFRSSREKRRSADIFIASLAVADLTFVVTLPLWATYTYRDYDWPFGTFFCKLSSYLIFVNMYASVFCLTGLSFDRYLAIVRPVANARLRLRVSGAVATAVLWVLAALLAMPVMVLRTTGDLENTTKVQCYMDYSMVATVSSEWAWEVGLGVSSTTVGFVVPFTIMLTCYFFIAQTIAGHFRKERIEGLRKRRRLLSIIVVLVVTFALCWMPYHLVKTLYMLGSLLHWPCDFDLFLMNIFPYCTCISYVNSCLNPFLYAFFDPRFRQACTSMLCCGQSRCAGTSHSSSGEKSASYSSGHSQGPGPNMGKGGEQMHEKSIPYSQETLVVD
# [2] = Metabolic stability in Sprague-Dawley rat liver microsomes assessed as parent compound remaining at 1 uM measured after 30 mins in the presence of NADPH by LC-MS analysis
# [3] = target: T1, Apelin receptor; assay: Agonist activity at human APJ receptor expressed in CHO cells co-expressing Galphaq16 assessed as stimulation of Ca2+ mobilization measured at 1 sec interval for 90 sec by fluorescent Calcium 5-dye based FLIPR-calcium mobilization assay; assay type: functional, cell-based
# [4] = Apparent permeability from apical to basolateral side in human Caco-2 cells by LC-MS/MS analysis; assay type: ADME, cell-based
# [5] = Apparent permeability from basolateral to apical side in human Caco-2 cells by LC-MS/MS analysis; assay type: ADME, cell-based
# [6] = Efflux ratio of apparent permeability from basolateral to apical side over apical to basolateral side in human Caco-2 cells by LC-MS/MS analysis; assay type: ADME, cell-based
# [7] = target: T1, Apelin receptor; assay: Agonist activity at human AGTRL1 expressed in CHO-K1 cells assessed as induction of beta-arrestin 2 recruitment incubated for 90 mins by PathHunter assay; assay type: functional, cell-based
# [8] = target: T2, Apelin receptor (Homo sapiens) (UniProt P35414); assay: Agonist activity at human AGTRL1 expressed in CHO-K1 cells assessed as induction of beta-arrestin 2 recruitment by measuring maximal efficacy incubated for 90 mins by PathHunter assay relative to control; assay type: functional, cell-based; settings: filed as agonist
# T2 sequence (whole entry): T1 sequence (P35414 whole entry)
# [9] = Solubility of the compound at pH 7.4; assay type: physicochemical; settings: buffer
# [10] = Plasma protein binding in rat by LC-MS/MS analysis; assay type: ADME, cell-free; settings: read-out: PPB (converted)
# [11] = AUC in Sprague-Dawley rat at 10 mg/kg, po measured upto 24 hrs by LC-MS/MS analysis; assay type: ADME, organism-based; set-up: time < 24 hrs, dose 10 mg/kg, route po; settings: in vivo
# [12] = Clearance in Sprague-Dawley rat at 10 mg/kg, po measured upto 24 hrs by LC-MS/MS analysis; assay type: ADME, organism-based; settings: in vivo
# [13] = MRT in Sprague-Dawley rat at 10 mg/kg, po measured upto 24 hrs by LC-MS/MS analysis; assay type: ADME, organism-based; settings: in vivo
# [14] = Cmax in Sprague-Dawley rat at 10 mg/kg, po measured upto 24 hrs by LC-MS/MS analysis; assay type: ADME, organism-based; set-up: dose 10 mg/kg, time < 24 hrs, route po; settings: in vivo
# [15] = Tmax in Sprague-Dawley rat at 10 mg/kg, po measured upto 24 hrs by LC-MS/MS analysis; assay type: ADME, organism-based; settings: in vivo
# [16] = Half-life in Sprague-Dawley rat at 10 mg/kg, po measured upto 24 hrs by LC-MS/MS analysis; assay type: ADME, organism-based; settings: in vivo
# [17] = Oral bioavailability in Sprague-Dawley rat at 10 mg/kg measured upto 24 hrs by LC-MS/MS analysis; assay type: ADME, organism-based; settings: in vivo
SMILES,EC50 [1],"remaining at 0.5 h, 1 µM [2]",EC50 [3],also measured
CCc1ccccc1-c1cc(C(=O)N[C@@H](CCN2CCCCC2)CC(=O)NC2CCC2)nn1C1CCCC1,7 nM,76.5%,,
CC(C)CN(C)CC[C@@H](CC(=O)NC1CCC1)NC(=O)c1cc(-c2ccccc2C(F)(F)F)n(C2CCCC2)n1,0.35 nM,63.6%,,
O=C(C[C@H](CCN1CCCC[C@H]1C(F)(F)F)NC(=O)c1cc(-c2ccccc2C(F)(F)F)n(C2CCCC2)n1)NC1CCC1,6 nM,6.04%,31 nM,
O=C(C[C@H](CCN1CCOCC1)NC(=O)c1cc(-c2ccccc2C(F)(F)F)n(C2CCCC2)n1)NC1CCC1,28 nM,,69 nM,
O=C(C[C@H](CCN1CCCCC1)NC(=O)c1cc(-c2cscn2)n(C2CCCC2)n1)NC1CCC1,,,> 10000 nM,
O=C(C[C@H](CCN1CCCC(F)(F)C1)NC(=O)c1cc(-c2ccccc2C(F)(F)F)n(C2CCCC2)n1)Nc1nnn[nH]1,6.5 nM,,24 nM,Papp A→B [4]: 8 ×10⁻⁶ cm/s; Papp B→A [5]: 8 ×10⁻⁶ cm/s; efflux ratio [6]: 1; EC50 [7]: 463 nM; Emax [8]: 80%; solubility [9]: > 1000 µM; fraction unbound [10]: < 0.006; AUC at 24 h [11]: 5850 ng·h/mL; CL/F [12]: 28 mL/min/kg; MRT [13]: 5.1 h; Cmax [14]: 1580 ng/mL; Tmax [15]: 0.4 h; half-life [16]: 4.1 h; bioavailability [17]: > 95%
O=C(C[C@H](CCN1CCCCC1)NC(=O)c1cc(-c2ccsc2C(F)(F)F)n(C2CCCC2)n1)NC1CCC1,,,538 nM,
CN(C(=O)[C@H](CC(=O)NC1CCC1)NC(=O)c1cc(-c2ccccc2C(F)(F)F)n(C2CCCC2)n1)C1CCCCC1,,,879 nM,
O=C(C[C@H](CCN1CCCCC1)NC(=O)c1cc(-c2ccccc2C(F)(F)F)n(C2CCCC2)n1)NC1CCC1,2.4 nM,74.6%,,Papp B→A [5]: 52 ×10⁻⁶ cm/s; efflux ratio [6]: 304
O=C(C[C@@H](CN1CCCC(F)(F)C1)NC(=O)c1cc(-c2ccccc2C(F)(F)F)n(C2CCCC2)n1)NC1CCC1,,,910 nM,
CN(C[C@H](CC(=O)NC1CCC1)NC(=O)c1cc(-c2ccccc2C(F)(F)F)n(C2CCCC2)n1)C1CCCCC1,,,5120 nM,
O=C(C[C@H](CCN1CC2(COC2)C1)NC(=O)c1cc(-c2ccccc2C(F)(F)F)n(C2CCCC2)n1)NC1CCC1,,,162 nM,
O=C(C[C@H](CCN1CCCCC1)NC(=O)c1cc(-c2ccccc2C2CC2)n(C2CCCC2)n1)NC1CCC1,6.4 nM,70.1%,,
C#Cc1ccccc1-c1cc(C(=O)N[C@@H](CCN2CCCCC2)CC(=O)NC2CCC2)nn1C1CCCC1,,,267 nM,
O=C(C[C@H](CCN1CCCCC1)NC(=O)c1cc(-c2cccc[n+]2[O-])n(C2CCCC2)n1)NC1CCC1,,,> 10000 nM,
CN(C)CC[C@@H](CC(=O)NC1CCC1)NC(=O)c1cc(-c2ccccc2C(F)(F)F)n(C2CCCC2)n1,,,834 nM,
Cc1cnn(CC[C@@H](CC(=O)NC2CCC2)NC(=O)c2cc(-c3ccccc3C(F)(F)F)n(C3CCCC3)n2)c1,54 nM,,,Papp A→B [4]: 8 ×10⁻⁶ cm/s; Papp B→A [5]: 24 ×10⁻⁶ cm/s; efflux ratio [6]: 3
O=C(C[C@H](CCN1CCCC(F)(F)C1)NC(=O)c1cc(-c2ccccc2C(F)(F)F)n(C2CCCC2)n1)NC1CCC1,3.4 nM,38.7%,,Papp A→B [4]: 33 ×10⁻⁶ cm/s; Papp B→A [5]: 36 ×10⁻⁶ cm/s; efflux ratio [6]: 1; EC50 [7]: 5.4 nM; Emax [8]: 107%; solubility [9]: 4 µM; fraction unbound [10]: 0.005
O=C(C[C@H](CCc1ccc(F)cc1)NC(=O)c1cc(-c2ccccc2C(F)(F)F)n(C2CCCC2)n1)NC1CCC1,15 nM,,103 nM,
COc1cccc(F)c1-c1cc(C(=O)N[C@@H](CCN2CCCCC2)CC(=O)NC2CCC2)nn1C1CCCC1,5.6 nM,74.3%,,
CN(CC[C@@H](CC(=O)NC1CCC1)NC(=O)c1cc(-c2ccccc2C(F)(F)F)n(C2CCCC2)n1)C1CCCCC1,2 nM,65.2%,14 nM,Papp B→A [5]: 68 ×10⁻⁶ cm/s
CC(F)(F)c1ccccc1-c1cc(C(=O)N[C@@H](CCN2CCCCC2)CC(=O)NC2CCC2)nn1C1CCCC1,4.3 nM,77.1%,,
O=C(C[C@@H](CN1CCC(F)(F)C1)NC(=O)c1cc(-c2ccccc2C(F)(F)F)n(C2CCCC2)n1)NC1CCC1,,,1210 nM,

# Source: ChEMBL document CHEMBL5143709, “Synthesis and characterization of an orally bioavailable small molecule agonist of the apelin receptor” (Bioorg Med Chem, 2022)
